Consider eight compounds from paper PMC7000209, “Novel small molecule modulators of quorum sensing in avian pathogenic Escherichia coli (APEC)” (Virulence, 2018).

For data set [1], the system named is APEC O1 in THP-1 cells. The data set is described as follows: Intracellular survival assay, APEC O1 in THP-1 cells. It counts as cell-based, avian pathogenic E. coli (APEC) O1. The following applies: MOI 100, 100 µM, 6 h, vs DMSO treated control. The procedure:
(§1) The effect of the selected AI-2 inhibitors on the survival of APEC in macrophage cells was tested as described before. Briefly, HD-11 cells was grown as described above and infected with 1 × 10^7 CFU (MOI = 100) of mid-log phase APEC strains (O78, O1 and O2) at 37 °C for 1 h. Cells were washed with PBS and treated with gentamicin (150 μg/mL) for 1 h to kill the extracellular bacteria. The cells were then washed and incubated with 100 µM of each compound in media containing 10 μg/mL of gentamicin at 37 °C for 6 h. Following treatment, cells were washed, lysed with 0.1% Triton X-100 for 5 min, ten-fold serially diluted in PBS and plated on LB agar plates to determine CFUs. Cells treated with chloramphenicol (40 μg/mL) and 1 μL of 100% DMSO were used as controls. The experiment was conducted two times with four replicates in each experiment. Intracellular survival was expressed as the log change of APEC CFUs in the AI-2 inhibitors treated cells.
(§2) Similarly, the intracellular survival assay was also performed in THP-1 cells (ATCC® TIB-202™) as described above. The THP-1 cells were grown in RPMI 1640 medium (Gibco) supplemented with 10% FBS and 2 mM glutamine. In order to differentiate the THP-1 monocyte to macrophage, 100 nM phorbol myristate acetate (PMA; Sigma-Aldrich) was added to the media. The cells (1.4 × 10^5 cells/well) were grown in a 96-well plate in a 5% CO2 incubator at 37 °C for 48 h, infected with APEC (MOI = 100), treated with each compound and the intracellular bacteria was determined as above.

Data set [2] concerns G. mellonella larvae. The data set can be described thus: Toxicity of SMs in wax moth larvae. The class given is in vivo, Galleria mellonella. The following applies: uninfected larvae, 12.5 µg/larva (50 mg/kg), 72 h. How it is done: To confirm that the death of the larvae was not due to the compounds, intrinsic toxicity the AI-2 inhibitors were assessed in a separate experiment. G. mellonella larvae (fifth instar; n = 10) were inoculated with 8.5 µL of SMs (50 mg/kg body weight; 12.5 µg/ larva) into the hemocoel via the last left proleg. Post inoculation, larvae were placed inside sterile petri dishes and incubated in the dark at 37 °C for 72 h and larval survival was monitored every 24 h. Two independent experiments were conducted

Data set [3] has as its system APEC O1 in HD-11 cells. The data set can be described thus: Intracellular survival assay, APEC O1 in HD-11 cells. To be noted: MOI 100, 100 µM, 6 h; for reduction of intracellular survival of APEC O1: vs DMSO treated control. The class given is cell-based, avian pathogenic E. coli (APEC) O1. How it is done: as §1
The subject of data set [4] is sheep RBCs. To be noted: 1 h, 100 µM.
Procedure: (§3) The hemolytic activity of the selected AI-2 inhibitors was determined as described before [56]. Briefly, 200 µL of the 10% RBCs (LAMPIRE Biological Laboratories) suspension in PBS was incubated with 100 μM of each compound for 1 h in a 96-well plate. The plate was then centrifuged at 5000 × g for 5 min, placed on ice for 5 min and the absorbance of the supernatant was measured at 540 nm. PBS, 1% DMSO, and 0.1% Triton X-100 were used as controls. Two independent experiments were conducted in triplicate wells in each experiment.
For data set [5], the system named is chicken RBCs. To be noted: 1 h, 100 µM.
Procedure: as §3
Data set [6] relates to HD-11 cells. The data set is described as follows: Lactate dehydrogenase (LDH) cytotoxicity assay, HD-11. The class given is cell-based, chicken. To be noted: 100 µM, 24 h. The procedure: The selected 10 AI-2 inhibitors were evaluated for their toxicity to Caco-2 (ATCC® HTB-37™) using LDH assay. Briefly, Caco-2 cells (1.4 × 10^5 cells/well) were grown in a 96-well plate in minimal essential medium (MEM) supplemented with 20% fetal bovine serum (FBS; Gibco), 1% non-essential amino acid (NEAA, Invitrogen Life Technologies) and 1mM sodium pyruvate, at 37 °C in a humidified 5% CO2 incubator for 48 h until a complete monolayer was formed. For LDH assay, cells were washed twice with media containing no FBS/no antibiotics and incubated with 150 µL of fresh media containing 100 μM of each compound at 37 °C for 24 h in a humidified 5% CO2 incubator. Fifty microliters of supernatant was analyzed using LDH Cytotoxicity Assay Kit (Thermo Scientific).
Toxicity was also determined on HD-11 cells (CVCL-4685). The HD-11 cells (1.4 × 10^5 cells/well) were grown in Iscove’s modified Dulbecco’s medium (IMEM; Gibco) supplemented with 2 mM glutamine and 10% FBS at 37 °C in a humidified 5% CO2 for 48 h until a monolayer was completely formed. LDH assay was conducted as described above.

For data set [7], the system named is AI-2 activity of APEC O78. The data set can be described thus: AI-2 bioluminescence indicator assay (V. harveyi BB170), APEC O78 supernatant. The class given is cell-based, avian pathogenic E. coli (APEC) O78. The following applies: Escherichia coli, read-out: AI-2-associated bioluminescence inhibition.
Data set [8] has as its system APEC O2 in THP-1 cells. The data set is described as follows: Intracellular survival assay, APEC O2 in THP-1 cells. It counts as cell-based, avian pathogenic E. coli (APEC) O2. To be noted: MOI 100, 100 µM, 6 h; for reduction of intracellular survival of APEC O2: vs DMSO treated control. How it is done: as §1, §2
Data set [9] deals with APEC O78 in THP-1 cells. The data set can be described thus: Intracellular survival assay, APEC O78 in THP-1 cells. The class given is cell-based, avian pathogenic E. coli (APEC) O78. To be noted: MOI 100, 100 µM, 6 h, vs DMSO treated control. How it is done:
as §1
Similarly, the intracellular survival assay was also performed in THP-1 cells (ATCC® TIB-202™) as described above. The THP-1 cells were grown in RPMI 1640 medium (Gibco) supplemented with 10% FBS and 2 mM glutamine. […] The cells (1.4 × 10^5 cells/well) were grown in a 96-well plate in a 5% CO2 incubator at 37 °C for 48 h, infected with APEC (MOI = 100), treated with each compound and the intracellular bacteria was determined as above.

`COCCN1CCC(CN(Cc2ccncc2)Cc2ccccc2Cl)CC1` [C1, (2-chlorobenzyl){[1-(2-methoxyethyl)-4-piperidinyl]methyl}(4-pyridinylmethyl)amine]: in data set [1], the “reduction of intracellular survival of APEC O1” value (“reduction … of APEC O1” for short) was “up to 0.9 log”. For the same compound, the “survival of larvae treated with compound (toxicity)” value in data set [2] turned out to be 100%.

Regarding `NC(=O)c1ccccc1Nc1cccc(C(F)(F)F)c1` [C3, 2-{[3-(trifluoromethyl)phenyl]amino}benzamide], the “clearance of intracellular APEC O1” value in data set [3] worked out at 100%. For the same compound, the “reduction … of APEC O1” value in data set [3] is ~ 4 logs; in [1] it was “up to 0.9 log”. Further, the hemolytic activity is reported as 20.6% in data set [4] and 6.4% in [5].

As for `Cc1ccc(CN2CCN(CCCc3ccccc3)CC2)cc1` [C5, 1-(4-methylbenzyl)-4-(3-phenylpropyl)piperazine], in [6], the “cytotoxicity (LDH release)” value is recorded as “less than 10%”.

In the case of `O=[N+]([O-])c1cccc(S(=O)(=O)Nc2ccc(Br)cc2)c1` [C6, N-(4-bromophenyl)-3-nit robenzenesulfonamide], the “survival of larvae treated with compound (toxicity)” value in [2] is 100%.

For `O=C(CCN1CCN(c2ccccc2F)CC1)Nc1ccc(Br)cc1` [C7, N-(4-bromophenyl)-3-[4-(2-fluorophenyl)-1-piperazinyl]propanamide], the inhibition at 50 µM in data set [7] came out at 25%.

On to `CCc1ccccc1Nc1nc(-c2c(C)nc3ccccn23)cs1` [C8, N-(2-ethylphenyl)-4-(2-methylimidazo[1,2-a]pyridin-3-yl)-1,3-thiazol-2-amine], for which, in [6], the “cytotoxicity (LDH release)” value is “less than 10%”.

In the case of `Fc1ccc(CN2CCCN(Cc3nc(-c4ccc(C(F)(F)F)cc4)no3)CC2)cc1` [C9, 1-(4-fluorobenzyl)-4-({3-[4-(trifluoromethyl)phenyl]-1,2,4-oxadiazol-5-yl}methyl)-1,4-diazepane], in data set [8], the “clearance of intracellular APEC O2” value is reported as 100% and the “reduction of intracellular survival of APEC O2” value is 4 logs. The “reduction … of APEC O1” value in data set [1] is given as “up to 0.9 log”. Besides, the inhibition at 50 µM in data set [7] amounted to 25%.

For `OCCC1CN(C2CCN(c3ccccc3)CC2)CCN1CCCc1ccccc1` (stereo not drawn) [C10, 2-[4-(1-phenyl-4-piperidinyl)-1-(3-phenylpropyl)-2-piperazinyl]ethanol], in data set [3], the “reduction … of APEC O1” value is “up to 0.9 logs”. In addition, the “reduction of intracellular survival of APEC O78” value in [9] is “up to 0.7 logs”. Moreover, in data set [8], the “clearance of intracellular APEC O2” value is on record as 100% and the “reduction of intracellular survival of APEC O2” value is listed as 4 logs. The “reduction … of APEC O1” value in data set [1] is “up to 0.9 log”. The inhibition at 50 µM in [7] amounted to 25%.

By inhibition is commonly meant the change of the read-out against control, counted positive when it falls.
